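The compound was tested at five concentrations on cells cultured in 96-well plates, with a 48-hour exposure period. GI50 is the concentration that inhibits growth by half.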 Activity calls are given as the source filed them. Cut-off read from the data, not from the text of the source: active = GI50 up to about 1.1 µM and inactive = higher.
Columns and labels:
Assay in all cases: growth of human tumour cells (NCI), 48 h
A549 = system: A549
COLO 205 = system: COLO 205
HCC 2998 = system: HCC 2998
HOP-62 = system: HOP-62
HT-29 = system: HT-29
K562 = system: K562
Malme-3M = system: Malme-3M
NCI-H460 = system: NCI-H460
OVCAR-3 = system: OVCAR-3
OVCAR-8 = system: OVCAR-8
SF-268 = system: SF-268
SK-MEL-2 = system: SK-MEL-2
SK-MEL-5 = system: SK-MEL-5
SN12C = system: SN12C
SNB-75 = system: SNB-75
UO-31 = system: UO-31
A498 = system: A498
UACC-257 = system: UACC-257

Measured: GI50

CNC(=S)NC1CCCCC1NC(=S)NC (configuration not stated)
inactive: A549 > 100 µM | COLO 205 > 100 µM | HCC 2998 > 100 µM | HOP-62 > 100 µM | HT-29 > 100 µM | K562 > 100 µM | Malme-3M > 100 µM | NCI-H460 > 100 µM | OVCAR-3 > 100 µM | OVCAR-8 > 100 µM | SF-268 > 100 µM | SK-MEL-2 > 100 µM | SK-MEL-5 > 100 µM | SN12C > 100 µM | SNB-75 > 100 µM | UO-31 > 100 µM

COc1c(Br)cc(Br)c(OC)c1-c1ccc[nH]1
inactive: A498 > 100 µM | A549 > 100 µM | COLO 205 > 100 µM | HOP-62 > 100 µM | HT-29 38.8 µM | K562 22.3 µM | NCI-H460 > 100 µM | OVCAR-3 > 100 µM | OVCAR-8 > 100 µM | SF-268 > 100 µM | SK-MEL-2 45.3 µM | SK-MEL-5 > 100 µM | SNB-75 22.1 µM | UACC-257 > 100 µM | UO-31 43.3 µM

CC(C)C(/C=C/c1ccc(Br)cc1)=N\NC(N)=O
inactive: A549 > 100 µM | COLO 205 > 100 µM | HCC 2998 12.3 µM | HOP-62 > 100 µM | HT-29 > 100 µM | K562 > 100 µM | NCI-H460 > 100 µM | OVCAR-8 > 100 µM | SF-268 > 100 µM | SK-MEL-2 > 100 µM | SK-MEL-5 > 100 µM | SN12C > 100 µM | SNB-75 > 100 µM | UACC-257 > 100 µM | UO-31 18.2 µM

CCc1ccc(/C(C)=N/NC(N)=S)cc1
inactive: A549 81.1 µM | COLO 205 > 100 µM | HCC 2998 > 100 µM | HOP-62 > 100 µM | HT-29 90.4 µM | K562 57.3 µM | Malme-3M 25.8 µM | OVCAR-3 > 100 µM | OVCAR-8 > 100 µM | SF-268 > 100 µM | SK-MEL-2 > 100 µM | SK-MEL-5 78.2 µM | UO-31 > 100 µM

CCCC(=O)OCC(O)CO (configuration not stated)
inactive: A549 > 5000 µM | COLO 205 > 5000 µM | HOP-62 > 5000 µM | HT-29 > 5000 µM | K562 4880 µM | Malme-3M 3610 µM | NCI-H460 4570 µM | OVCAR-8 2900 µM | SF-268 > 5000 µM | SK-MEL-2 3780 µM | SK-MEL-5 4970 µM | SN12C > 5000 µM | SNB-75 > 5000 µM | UACC-257 > 5000 µM | UO-31 2860 µM

CC(=O)Nc1ccc(-c2nnc(SCC(=O)Nc3ccc([N+](=O)[O-])cc3)o2)cc1
inactive: A549 17.5 µM | COLO 205 14.2 µM | HOP-62 26.3 µM | HT-29 13.4 µM | K562 36.4 µM | Malme-3M 14 µM | NCI-H460 15.2 µM | OVCAR-3 14.5 µM | OVCAR-8 14.6 µM | SF-268 14.1 µM | SK-MEL-2 14.3 µM | SK-MEL-5 13.1 µM | SN12C 16.3 µM | SNB-75 13.2 µM | UACC-257 12.1 µM | UO-31 18.9 µM

CCc1cccc(C)c1N1C(=O)C(=O)C(c2nc3ccccc3o2)/C(=N/NC(=S)NN)C1=O (configuration not stated)
inactive: A498 > 100 µM | A549 > 100 µM | COLO 205 > 100 µM | HOP-62 > 100 µM | HT-29 > 100 µM | K562 > 100 µM | Malme-3M > 100 µM | NCI-H460 > 100 µM | OVCAR-3 > 100 µM | OVCAR-8 > 100 µM | SF-268 > 100 µM | SK-MEL-2 > 100 µM | SK-MEL-5 > 100 µM | SN12C > 100 µM | SNB-75 > 100 µM | UACC-257 > 100 µM | UO-31 > 100 µM

— ChEMBL document CHEMBL1201862, “PubChem BioAssay data set” (2004)
